According to ChEMBL document CHEMBL1137924, “Carbonic anhydrase inhibitors. Inhibition of the beta-class enzyme from the methanoarchaeon Methanobacterium thermoautotrophicum (Cab) with anions” (Bioorg Med Chem Lett, 2004):
“And” between values parts separate entries of the source, which are not always exact repeats. Equal values may be shown once.

Experiments:
Carbonic anhydrase [1] = molecular target: T1, Carbonic anhydrase (Methanobacterium thermoautotrophicum, UniProt Q50565); design: species or system Methanothermobacter thermautotrophicus str. Delta H
T1 sequence (Q50565 whole entry): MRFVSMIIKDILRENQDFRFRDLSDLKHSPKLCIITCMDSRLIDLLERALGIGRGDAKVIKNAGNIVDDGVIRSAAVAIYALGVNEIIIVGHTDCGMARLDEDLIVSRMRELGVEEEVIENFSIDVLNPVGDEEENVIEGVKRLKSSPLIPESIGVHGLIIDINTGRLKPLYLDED

Carbonic anhydrase 4 = Carbonic anhydrase 4 (Homo sapiens, UniProt P22748); assay: Inhibitory constant against carbonic anhydrase IV
Chain of Carbonic anhydrase 4 (P22748 whole entry): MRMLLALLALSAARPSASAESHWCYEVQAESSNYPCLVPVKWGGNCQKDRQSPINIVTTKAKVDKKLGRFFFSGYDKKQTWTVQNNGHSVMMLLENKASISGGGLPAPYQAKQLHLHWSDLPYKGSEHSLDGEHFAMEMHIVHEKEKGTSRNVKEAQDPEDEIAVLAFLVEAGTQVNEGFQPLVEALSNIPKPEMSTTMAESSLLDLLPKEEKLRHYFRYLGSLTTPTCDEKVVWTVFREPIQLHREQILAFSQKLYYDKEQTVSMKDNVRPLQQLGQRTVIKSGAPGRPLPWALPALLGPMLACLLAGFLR

Carbonic anhydrase [2] = molecular target: T2, Carbonic anhydrase (Methanosarcina thermophila, UniProt P40881); type: functional
T2 sequence (P40881 whole entry): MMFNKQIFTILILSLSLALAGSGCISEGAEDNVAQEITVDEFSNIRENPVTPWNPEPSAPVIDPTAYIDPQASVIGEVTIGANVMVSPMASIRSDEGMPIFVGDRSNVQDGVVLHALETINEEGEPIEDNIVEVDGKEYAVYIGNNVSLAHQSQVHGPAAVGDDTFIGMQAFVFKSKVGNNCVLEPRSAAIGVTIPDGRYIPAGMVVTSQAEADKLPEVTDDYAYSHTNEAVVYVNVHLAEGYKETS
Description: Inhibitory constant against Zn-Cam (Methanosarcina thermophila)

Carbonic anhydrase 1 = Carbonic anhydrase 1 (Homo sapiens, UniProt P00915)
Chain of Carbonic anhydrase 1 (P00915 whole entry): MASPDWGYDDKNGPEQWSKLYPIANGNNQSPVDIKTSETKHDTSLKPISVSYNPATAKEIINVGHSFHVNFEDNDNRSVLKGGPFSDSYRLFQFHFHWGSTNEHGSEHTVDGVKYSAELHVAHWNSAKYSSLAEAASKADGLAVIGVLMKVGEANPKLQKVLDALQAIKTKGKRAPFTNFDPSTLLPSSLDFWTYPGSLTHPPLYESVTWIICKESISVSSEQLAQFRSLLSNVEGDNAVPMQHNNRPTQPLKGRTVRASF

Carbonic anhydrase [3] = molecular target: T1, Carbonic anhydrase; assay: Inhibitory constant against methanoarchaeon Methanobacterium thermoautotrophicum (Cab); design: species or system Methanothermobacter thermautotrophicus str. Delta H
Carbonic anhydrase 2 = Carbonic anhydrase 2 (Homo sapiens, UniProt P00918)

Structure (SMILES)	Ki (Carbonic anhydrase [1])	Ki (Carbonic anhydrase 4)	Ki (Carbonic anhydrase [2])	Ki (Carbonic anhydrase 1)	Ki (Carbonic anhydrase [3])	Ki (Carbonic anhydrase 2)
O=C(O)O [BICARBONATE]	44.9 mM and 9.6 mM	44 mM	42 mM and 6.7 mM			
Br [BROMIDE]		52 mM	160 mM	4 mM	42.1 mM	
Cl [HYDROCHLORIC ACID]		36 mM	> 200 mM	6 mM	152 mM	
S [HYDROGEN SULFIDE]	0.7 mM		0.05 mM	0.0006 mM		
I [IODIDE]		11 mM	160 mM	0.3 mM	13.2 mM	
O=[N+]([O-])O [NITRIC ACID]	7.8 mM		36.5 mM	7 mM		
O=NO [NITROUS ACID]	44.8 mM		6.8 mM			
O[B-](O)(O)c1ccccc1 [OXO(PHENYL)-BORANEDIOL]	0.33 mM		0.15 mM	31.7 mM		49.2 mM
OB(O)c1ccccc1 [PHENYLBORONIC ACID]	0.2 mM		0.23 mM	58.6 mM		
NS(=O)(=O)O [SULFAMATE]	44 mM		9.6 mM	0.02 mM		
NS(N)(=O)=O [SULFAMIDE]			0.07 mM			
O=S(=O)(O)O [SULFURIC ACID]		44 mM				
N#CS [THIOCYANIC ACID]			7 mM			
